Data published in paper PMC6600388 (2019).
Where two headings read alike, the source gives them in different places. Residues, ends and D or L forms follow the SMILES beside them.

System: human red blood cells
Details: red cells of human

Compound | IC50 (pH 5.5) | IC50 (pH 7.4)
CC[C@H](C)[C@H](NC(=O)[C@H](CCC(=O)O)NC(=O)CNC(=O)[C@H](Cc1ccccc1)NC(=O)[C@H](CC(C)C)NC(=O)CNC(=O)[C@@H](N)CS)C(=O)N[C@@H](CCC(=O)O)C(=O)N[C@@H](CCC(=O)O)C(=O)N[C@@H](CC(C)C)C(=O)N[C@H](C(=O)N[C@@H](CCC(=O)O)C(=O)N[C@@H](CCC(=O)O)C(=O)NCC(=O)N[C@@H](CC(C)C)C(=O)N[C@@H](CCCCN)C(=O)N[C@@H](CC(N)=O)C(=O)N[C@@H](CC(C)C)C(=O)N[C@H](C(=O)N[C@@H](CC(=O)O)C(=O)N[C@@H](Cc1c[nH]c2ccccc12)C(=O)N[C@@H](Cc1c[nH]c2ccccc12)C(=O)N[C@@H](Cc1ccc(O)cc1)C(=O)NCC(=O)N[C@@H](Cc1ccc(O)cc1)C(=O)NCC(=O)N[C@@H](CCCNC(=N)N)C(=O)N[C@@H](CCCCN)C(=O)N[C@@H](CCCCN)C(=O)N[C@@H](CCCNC(=N)N)C(=O)N[C@@H](CCCNC(=N)N)C(=O)N[C@@H](CCC(N)=O)C(=O)N[C@@H](CCCNC(=N)N)C(=O)N[C@@H](CCCNC(=N)N)C(N)=O)[C@@H](C)CC)[C@@H](C)CC [Peptide 61] (H-CGLFGEIEELIEEGLKNLIDWWYGYGRKKRRQRR-NH2) | 0.97 µM | 8.07 µM
CC[C@H](C)[C@H](NC(=O)[C@H](C)NC(=O)[C@H](CCC(=O)O)NC(=O)[C@H](Cc1ccccc1)NC(=O)[C@H](CC(C)C)NC(=O)CNC(=O)[C@@H](N)CS)C(=O)N[C@@H](CCC(=O)O)C(=O)NCC(=O)N[C@@H](Cc1ccccc1)C(=O)N[C@H](C(=O)N[C@@H](CCC(=O)O)C(=O)N[C@@H](CC(N)=O)C(=O)NCC(=O)N[C@@H](Cc1c[nH]c2ccccc12)C(=O)N[C@@H](CCC(=O)O)C(=O)NCC(=O)N[C@@H](CCSC)C(=O)N[C@H](C(=O)N[C@@H](CC(=O)O)C(=O)NCC(=O)NCC(=O)NCC(=O)NCC(=O)N[C@@H](Cc1ccc(O)cc1)C(=O)NCC(=O)N[C@@H](CCCNC(=N)N)C(=O)N[C@@H](CCCCN)C(=O)N[C@@H](CCCCN)C(=O)N[C@@H](CCCNC(=N)N)C(=O)N[C@@H](CCCNC(=N)N)C(=O)N[C@@H](CCC(N)=O)C(=O)N[C@@H](CCCNC(=N)N)C(=O)N[C@@H](CCCNC(=N)N)C(N)=O)[C@@H](C)CC)[C@@H](C)CC [Peptide 32b] (H-CGLFEAIEGFIENGWEGMIDGGGGYGRKKRRQRR-NH2) | > 10 µM | > 10 µM
CC[C@H](C)[C@H](NC(=O)[C@H](C)NC(=O)[C@H](CCC(=O)O)NC(=O)[C@H](Cc1ccccc1)NC(=O)[C@H](CC(C)C)NC(=O)CNC(=O)[C@@H](N)CS)C(=O)N[C@@H](CCC(=O)O)C(=O)NCC(=O)N[C@@H](Cc1ccccc1)C(=O)N[C@H](C(=O)N[C@@H](CCC(=O)O)C(=O)N[C@@H](CC(N)=O)C(=O)NCC(=O)N[C@@H](Cc1c[nH]c2ccccc12)C(=O)N[C@@H](CCC(=O)O)C(=O)NCC(=O)N[C@@H](CC(C)C)C(=O)N[C@H](C(=O)N[C@@H](CC(=O)O)C(=O)NCC(=O)N[C@@H](Cc1c[nH]c2ccccc12)C(=O)N[C@@H](Cc1ccc(O)cc1)C(=O)NCC(=O)N[C@@H](Cc1ccc(O)cc1)C(=O)NCC(=O)N[C@@H](CCCNC(=N)N)C(=O)N[C@@H](CCCCN)C(=O)N[C@@H](CCCCN)C(=O)N[C@@H](CCCNC(=N)N)C(=O)N[C@@H](CCCNC(=N)N)C(=O)N[C@@H](CCC(N)=O)C(=O)N[C@@H](CCCNC(=N)N)C(=O)N[C@@H](CCCNC(=N)N)C(N)=O)[C@@H](C)CC)[C@@H](C)CC [Peptide 28g] | 0.71 µM | 2.9 µM
CC[C@H](C)[C@H](NC(=O)[C@H](CCC(=O)O)NC(=O)CNC(=O)[C@H](Cc1ccccc1)NC(=O)[C@H](CC(C)C)NC(=O)CNC(=O)[C@@H](N)CS)C(=O)N[C@@H](CCC(=O)O)C(=O)N[C@@H](CCC(=O)O)C(=O)N[C@@H](CC(C)C)C(=O)N[C@H](C(=O)N[C@@H](CCC(=O)O)C(=O)N[C@@H](CCC(=O)O)C(=O)NCC(=O)N[C@@H](CC(C)C)C(=O)N[C@@H](CCC(=O)O)C(=O)N[C@@H](CC(N)=O)C(=O)N[C@@H](CC(C)C)C(=O)N[C@H](C(=O)N[C@@H](CC(=O)O)C(=O)N[C@@H](Cc1c[nH]c2ccccc12)C(=O)N[C@@H](Cc1c[nH]c2ccccc12)C(=O)N[C@@H](Cc1ccc(O)cc1)C(=O)NCC(=O)N[C@@H](Cc1ccc(O)cc1)C(=O)NCC(=O)N[C@@H](CCCNC(=N)N)C(=O)N[C@@H](CCCCN)C(=O)N[C@@H](CCCCN)C(=O)N[C@@H](CCCNC(=N)N)C(=O)N[C@@H](CCCNC(=N)N)C(=O)N[C@@H](CCC(N)=O)C(=O)N[C@@H](CCCNC(=N)N)C(=O)N[C@@H](CCCNC(=N)N)C(N)=O)[C@@H](C)CC)[C@@H](C)CC [Peptide 63] (H-CGLFGEIEELIEEGLENLIDWWYGYGRKKRRQRR-NH2) | 3.6 µM | > 20 µM
CC[C@H](C)[C@H](NC(=O)[C@H](CCC(=O)O)NC(=O)CNC(=O)[C@H](Cc1ccccc1)NC(=O)[C@H](CC(C)C)NC(=O)CNC(=O)[C@@H](N)CS)C(=O)N[C@@H](CCC(=O)O)C(=O)N[C@@H](CCC(=O)O)C(=O)N[C@@H](Cc1ccccc1)C(=O)N[C@H](C(=O)N[C@@H](CCC(=O)O)C(=O)N[C@@H](CCC(=O)O)C(=O)NCC(=O)N[C@@H](Cc1c[nH]c2ccccc12)C(=O)N[C@@H](CCC(=O)O)C(=O)N[C@@H](CC(N)=O)C(=O)N[C@@H](Cc1ccccc1)C(=O)N[C@H](C(=O)N[C@@H](CC(=O)O)C(=O)N[C@@H](Cc1c[nH]c2ccccc12)C(=O)N[C@@H](Cc1c[nH]c2ccccc12)C(=O)N[C@@H](Cc1ccc(O)cc1)C(=O)NCC(=O)N[C@@H](Cc1ccc(O)cc1)C(=O)NCC(=O)N[C@@H](CCCNC(=N)N)C(=O)N[C@@H](CCCCN)C(=O)N[C@@H](CCCCN)C(=O)N[C@@H](CCCNC(=N)N)C(=O)N[C@@H](CCCNC(=N)N)C(=O)N[C@@H](CCC(N)=O)C(=O)N[C@@H](CCCNC(=N)N)C(=O)N[C@@H](CCCNC(=N)N)C(N)=O)[C@@H](C)CC)[C@@H](C)CC [Peptide 66] (H-CGLFGEIEEFIEEGWENFIDWWYGYGRKKRRQRR-NH2) | 4.08 µM | > 20 µM
CC[C@H](C)[C@H](NC(=O)[C@H](CCC(=O)O)NC(=O)CNC(=O)[C@H](Cc1ccccc1)NC(=O)[C@H](CC(C)C)NC(=O)CNC(=O)[C@@H](N)CS)C(=O)N[C@@H](CCC(=O)O)C(=O)N[C@@H](CCC(=O)O)C(=O)N[C@@H](CC(C)C)C(=O)N[C@H](C(=O)N[C@@H](CCC(=O)O)C(=O)N[C@@H](CCC(=O)O)C(=O)NCC(=O)N[C@@H](CC(C)C)C(=O)N[C@@H](CCCCN)C(=O)N[C@@H](CC(N)=O)C(=O)N[C@@H](CC(C)C)C(=O)N[C@H](C(=O)N[C@@H](CC(=O)O)C(=O)N[C@@H](Cc1c[nH]c2ccccc12)C(=O)N[C@@H](Cc1c[nH]c2ccccc12)C(=O)N[C@@H](Cc1ccc(O)cc1)C(=O)NCC(=O)N[C@@H](Cc1ccc(O)cc1)C(=O)NCC(=O)N[C@@H](Cc1c[nH]cn1)C(=O)N[C@@H](CCCCN)C(=O)N[C@@H](CCCCN)C(=O)N[C@@H](Cc1c[nH]cn1)C(=O)N[C@@H](Cc1c[nH]cn1)C(=O)N[C@@H](CCC(N)=O)C(=O)N[C@@H](Cc1c[nH]cn1)C(=O)N[C@@H](CCCNC(=N)N)C(N)=O)[C@@H](C)CC)[C@@H](C)CC [Peptide 62] (H-CGLFGEIEELIEEGLKNLIDWWYGYGHKKHHQHR-NH2) | 1.28 µM | > 20 µM
CC[C@H](C)[C@H](NC(=O)[C@H](CCC(=O)O)NC(=O)CNC(=O)[C@H](Cc1ccccc1)NC(=O)[C@H](CC(C)C)NC(=O)CNC(=O)[C@@H](N)CS)C(=O)N[C@@H](CCC(=O)O)C(=O)N[C@@H](CCC(=O)O)C(=O)N[C@@H](CC(C)C)C(=O)N[C@H](C(=O)N[C@@H](CCC(=O)O)C(=O)N[C@@H](CCC(=O)O)C(=O)NCC(=O)N[C@@H](CC(C)C)C(=O)N[C@@H](CCC(=O)O)C(=O)N[C@@H](CC(N)=O)C(=O)N[C@@H](CC(C)C)C(=O)N[C@H](C(=O)N[C@@H](CC(=O)O)C(=O)N[C@@H](Cc1c[nH]c2ccccc12)C(=O)N[C@@H](Cc1c[nH]c2ccccc12)C(=O)N[C@@H](Cc1ccc(O)cc1)C(=O)NCC(=O)N[C@@H](Cc1ccc(O)cc1)C(=O)NCC(=O)N[C@@H](Cc1c[nH]cn1)C(=O)N[C@@H](CCCCN)C(=O)N[C@@H](CCCCN)C(=O)N[C@@H](Cc1c[nH]cn1)C(=O)N[C@@H](Cc1c[nH]cn1)C(=O)N[C@@H](CCC(N)=O)C(=O)N[C@@H](Cc1c[nH]cn1)C(=O)N[C@@H](CCCNC(=N)N)C(N)=O)[C@@H](C)CC)[C@@H](C)CC [Peptide 64] (H-CGLFGEIEELIEEGLENLIDWWYGYGHKKHHQHR-NH2) | 3.91 µM | > 20 µM
CC[C@H](C)[C@H](NC(=O)[C@H](C)NC(=O)[C@H](CCC(=O)O)NC(=O)[C@H](Cc1ccccc1)NC(=O)[C@H](CC(C)C)NC(=O)CNC(=O)[C@@H](N)CS)C(=O)N[C@@H](CCC(=O)O)C(=O)NCC(=O)N[C@@H](Cc1ccccc1)C(=O)N[C@H](C(=O)N[C@@H](CCC(=O)O)C(=O)N[C@@H](CC(N)=O)C(=O)NCC(=O)N[C@@H](Cc1c[nH]c2ccccc12)C(=O)N[C@@H](CCC(=O)O)C(=O)NCC(=O)N[C@@H](CCSC)C(=O)N[C@H](C(=O)N[C@@H](CC(=O)O)C(=O)NCC(=O)N[C@@H](Cc1c[nH]c2ccccc12)C(=O)N[C@@H](Cc1ccc(O)cc1)C(=O)NCC(N)=O)[C@@H](C)CC)[C@@H](C)CC [Peptide 4, reference compound] | 16 µM | > 20 µM
CC[C@H](C)[C@H](NC(=O)[C@H](C)NC(=O)[C@H](CCC(=O)O)NC(=O)[C@H](Cc1ccccc1)NC(=O)[C@H](CC(C)C)NC(=O)CNC(=O)[C@@H](N)CS)C(=O)N[C@@H](C)C(=O)NCC(=O)N[C@@H](Cc1ccccc1)C(=O)N[C@H](C(=O)N[C@@H](CCC(=O)O)C(=O)N[C@@H](CC(N)=O)C(=O)NCC(=O)N[C@@H](Cc1c[nH]c2ccccc12)C(=O)N[C@@H](CCC(=O)O)C(=O)NCC(=O)N[C@@H](CCSC)C(=O)N[C@H](C(=O)N[C@@H](CC(=O)O)C(=O)NCC(=O)N[C@@H](Cc1c[nH]c2ccccc12)C(=O)N[C@@H](Cc1ccc(O)cc1)C(=O)NCC(N)=O)[C@@H](C)CC)[C@@H](C)CC [Peptide 3, reference compound] (H-CGLFEAIAGFIENGWEGMIDGWYG-NH2) | > 20 µM | > 20 µM
